Like-named read-outs stand apart in the source and are kept apart here.
Assays:
[1] = mouse, in vivo
[2] = Stability in human plasma; format: in vitro ADME
HEK293 pGL4 = test: Firefly_pGL signal, cmpd/DMSO (pGL4 control cells); format: cell-based; conditions: Homo sapiens
NR2F6 = molecular target: T1, NR2F6 (Homo sapiens, UniProt P10588); test: NR2F6 agonist screening, Firefly signal cmpd/DMSO; format: cell-based
T1 construct: expressed in transfected cells; also transient transfection
T1 sequence (P10588 1-404): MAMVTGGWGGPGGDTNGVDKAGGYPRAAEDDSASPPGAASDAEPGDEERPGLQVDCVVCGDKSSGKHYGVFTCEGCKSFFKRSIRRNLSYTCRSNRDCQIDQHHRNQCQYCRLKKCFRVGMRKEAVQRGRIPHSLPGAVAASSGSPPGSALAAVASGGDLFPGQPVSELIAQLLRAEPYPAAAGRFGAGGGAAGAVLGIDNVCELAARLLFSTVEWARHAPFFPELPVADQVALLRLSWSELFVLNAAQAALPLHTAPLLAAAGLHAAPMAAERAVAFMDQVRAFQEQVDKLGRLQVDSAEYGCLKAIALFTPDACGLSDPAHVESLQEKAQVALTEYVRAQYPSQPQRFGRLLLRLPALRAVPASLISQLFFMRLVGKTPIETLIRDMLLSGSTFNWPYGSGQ

NR2F6 LBD = molecular target: T2, NR2F6 LBD (Homo sapiens, UniProt P10588); test: NR2F6 LBD transient transfection; format: cell-based
T2 construct: expressed in transfected cells
T2 sequence (P10588 165-393 limits assumed): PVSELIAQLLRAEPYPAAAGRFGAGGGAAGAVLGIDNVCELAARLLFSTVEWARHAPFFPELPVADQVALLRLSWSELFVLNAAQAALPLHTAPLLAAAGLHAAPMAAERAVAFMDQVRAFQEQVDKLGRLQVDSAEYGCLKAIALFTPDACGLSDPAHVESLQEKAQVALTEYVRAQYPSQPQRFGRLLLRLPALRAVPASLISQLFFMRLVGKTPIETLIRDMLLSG
In short: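 LBD-transfected cells treated at 40, 10, 2 and 0.5 μM (4 replicates); cytotoxicity measured in parallel, normalized to DMSO (0%) and zero signal (100%). Higher concentrations excluded where signal loss reflected toxicity.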

PPB = format: in vitro ADME; conditions: for recovery: plasma
Renilla [3] = test: Renilla signal in NR2F6 agonist screening, cmpd/DMSO; format: cell-based; conditions: Renilla
[4] = Microsomal stability in human liver microsomes; format: in vitro ADME
pH stability = format: physicochemical
Renilla [5] = test: Renilla signal, LBD, cmpd/DMSO (NR2F6 LBD transfected cells); format: cell-based
[6] = read-out: Renilla F4, cmpd/DMSO (mean)
[7] = F4, 1% FBS, read-out: Renilla, F4, 1% FBS, cmpd/DMSO (mean)
[8] = F4, 10% FBS, read-out: Renilla, F4, 10% FBS, cmpd/DMSO (mean)

COCCN[C@H]1CS(=O)(=O)C[C@@H]1S(=O)(=O)c1ccc(Cl)cc1 [Compound D136]
MTD and acute toxicity [1]: no toxicity was observed
stability in human plasma [2]: Stable
fold induction at 0.5 µM (HEK293 pGL4; HEK293, 0.5 uM, read-out: Firefly pGL4, cmpd/DMSO (mean)): 1.1
fold induction at 2 µM (HEK293 pGL4; HEK293, 2 uM, read-out: Firefly pGL4, cmpd/DMSO (mean)): 1
fold induction at 10 µM (HEK293 pGL4; HEK293, 10 uM, read-out: Firefly pGL4, cmpd/DMSO (mean)): 1.8
fold induction at 40 µM (HEK293 pGL4; HEK293, 40 uM, read-out: Firefly pGL4, cmpd/DMSO (mean)): 2.6
fold induction at 0.5 µM (HEK293 pGL4; HEK293, pGL4, 1% FBS, 0.5 uM, read-out: Firefly, pGL4, 1% FBS, cmpd/DMSO (mean)): 1.1
fold induction at 2 µM (HEK293 pGL4; HEK293, pGL4, 1% FBS, 2 uM, read-out: Firefly, pGL4, 1% FBS, cmpd/DMSO (mean)): 0.9
fold induction at 10 µM (HEK293 pGL4; HEK293, pGL4, 1% FBS, 10 uM, read-out: Firefly, pGL4, 1% FBS, cmpd/DMSO (mean)): 1.3
fold induction at 40 µM (HEK293 pGL4; HEK293, pGL4, 1% FBS, 40 uM, read-out: Firefly, pGL4, 1% FBS, cmpd/DMSO (mean)): 1.6
fold induction at 0.5 µM (HEK293 pGL4; HEK293, pGL4, 10% FBS, 0.5 uM, read-out: Firefly, pGL4, 10% FBS, cmpd/DMSO (mean)): 1.3
fold induction at 2 µM (HEK293 pGL4; HEK293, pGL4, 10% FBS, 2 uM, read-out: Firefly, pGL4, 10% FBS, cmpd/DMSO (mean)): 1.1
fold induction at 10 µM (HEK293 pGL4; HEK293, pGL4, 10% FBS, 10 uM, read-out: Firefly, pGL4, 10% FBS, cmpd/DMSO (mean)): 1.8
fold induction at 40 µM (HEK293 pGL4; HEK293, pGL4, 10% FBS, 40 uM, read-out: Firefly, pGL4, 10% FBS, cmpd/DMSO (mean)): 3.8
Firefly F4, cmpd/DMSO (mean) (NR2F6; 0.5 uM): 1.5
Firefly F4, cmpd/DMSO (mean) (NR2F6; 2 uM): 1.1
Firefly F4, cmpd/DMSO (mean) (NR2F6; 10 uM): 2.7
Firefly F4, cmpd/DMSO (mean) (NR2F6; 40 uM): 5.2
F4, Firefly/Renilla for S/B(F4) > 3 (NR2F6; 1% FBS, 40 uM): 3.1
Firefly, F4/pGL4 for S/B(F4) > 3 (NR2F6; 1% FBS, 40 uM): 4.7
F4, Firefly/Renilla for S/B(F4) > 3 (NR2F6; 10% FBS, 40 uM): 3.5
Firefly, F4/pGL4 for S/B(F4) > 3 (NR2F6; 10% FBS, 40 uM): 3.0
Firefly, F4, 1% FBS, cmpd/DMSO (mean) (NR2F6; 1% FBS, 0.5 uM): 0.8
Firefly, F4, 1% FBS, cmpd/DMSO (mean) (NR2F6; 1% FBS, 2 uM): 1.0
Firefly, F4, 1% FBS, cmpd/DMSO (mean) (NR2F6; 1% FBS, 10 uM): 2.4
Firefly, F4, 1% FBS, cmpd/DMSO (mean) (NR2F6; 1% FBS, 40 uM): 7.4
Firefly, F4, 10% FBS, cmpd/DMSO (mean) (NR2F6; 10% FBS, 0.5 uM): 0.4
Firefly, F4, 10% FBS, cmpd/DMSO (mean) (NR2F6; 10% FBS, 2 uM): 1.4
Firefly, F4, 10% FBS, cmpd/DMSO (mean) (NR2F6; 10% FBS, 10 uM): 1.9
Firefly, F4, 10% FBS, cmpd/DMSO (mean) (NR2F6; 10% FBS, 40 uM): 12
activation of full-length NR2F6 (NR2F6; cellular assays): Activates
Firefly LBD, cmpd/DMSO (mean) (NR2F6 LBD; 0.5 uM): 1.0
Firefly LBD, cmpd/DMSO (mean) (NR2F6 LBD; 2 uM): 1.5
Firefly LBD, cmpd/DMSO (mean) (NR2F6 LBD; 10 uM): 2.6
Firefly LBD, cmpd/DMSO (mean) (NR2F6 LBD; 40 uM): 2.9
activation of ligand binding domain-only NR2F6 (NR2F6 LBD; cellular assays): Activates
%, Bound (PPB; Human): 51.6%
%, Free (50% pI) (PPB; Human): 65.3%
%, Free (recalc from 50% pI) (PPB; Human): 48.4%
Permeability, % (PPB; Human): 94%
%, Bound (PPB; Rat): 52.0%
%, Free (50% pI) (PPB; Rat): 64.9%
%, Free (recalc from 50% pI) (PPB; Rat): 48.0%
Permeability, % (PPB; Rat): 94%
recovery (PPB; human): 56.9%
recovery (PPB; rat): 122%
fold induction at 0.5 µM (Renilla [3]; [6]): 0.9
fold induction at 2 µM (Renilla [3]; [6]): 1.1
fold induction at 10 µM (Renilla [3]; [6]): 1.4
fold induction at 40 µM (Renilla [3]; [6]): 1.7
fold induction at 0.5 µM (Renilla [3]; [7]): 1.1
fold induction at 2 µM (Renilla [3]; [7]): 1.1
fold induction at 10 µM (Renilla [3]; [7]): 1.5
fold induction at 40 µM (Renilla [3]; [7]): 2.4
fold induction at 0.5 µM (Renilla [3]; [8]): 0.9
fold induction at 2 µM (Renilla [3]; [8]): 0.9
fold induction at 10 µM (Renilla [3]; [8]): 1.2
fold induction at 40 µM (Renilla [3]; [8]): 3.3
stability in presence of human liver microsomes [4]: Extremely stable
pH stability at pH2 (pH stability; pH2): extremely stable
pH stability at pH7 (pH stability; pH7): extremely stable
Renilla LBD, cmpd/DMSO (mean) (Renilla [5]; 0.5 uM): 1.1
Renilla LBD, cmpd/DMSO (mean) (Renilla [5]; 2 uM): 1.0
Renilla LBD, cmpd/DMSO (mean) (Renilla [5]; 10 uM): 1.0
Renilla LBD, cmpd/DMSO (mean) (Renilla [5]; 40 uM): 0.6
